Measurements published in PubChem BioAssay AID1918939 (Molecular Pharmacology Branch, DTP, NCI, 2023).

Tested on: 653999-131-R-J2-PDC complex spheroid viability
Assay: Anticancer human tumor 653999-131-R-J2-PDC patient-derived lung adenocarcinoma cell line growth inhibition
Conditions: for IC50: curve of first compound; for viability, T/C: stronger effect = lower value
Summary of the method: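 Drug combinations with the LSD1 inhibitor iadademstat tested on tumor cells co-cultured as spheroids with endothelial cells and mesenchymal stem cells. Concentrations descended in half-log increments from clinical Cmax or 10 microM.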

[1] = second compound 0.1 µM, first compound 0.00949 µM
[2] = second compound 0.1 µM, first compound 0.03 µM
[3] = second compound 0.1 µM, first compound 0.0949 µM
[4] = second compound 0.1 µM, first compound 0.3 µM
[5] = second compound 0.316 µM, first compound 0.00949 µM
[6] = second compound 0.316 µM, first compound 0.03 µM
[7] = second compound 0.316 µM, first compound 0.0949 µM
[8] = second compound 0.316 µM, first compound 0.3 µM
[9] = second compound 1 µM, first compound 0.00949 µM
[10] = second compound 1 µM, first compound 0.03 µM
[11] = second compound 1 µM, first compound 0.0949 µM
[12] = second compound 1 µM, first compound 0.3 µM
[13] = second compound 3.16 µM, first compound 0.00949 µM
[14] = second compound 3.16 µM, first compound 0.03 µM
[15] = second compound 3.16 µM, first compound 0.0949 µM
[16] = second compound 3.16 µM, first compound 0.3 µM
[17] = second compound 10 µM, first compound 0.00949 µM
[18] = second compound 10 µM, first compound 0.03 µM
[19] = second compound 10 µM, first compound 0.0949 µM
[20] = second compound 10 µM, first compound 0.3 µM
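Note: spheroids exposed to agents for seven days before readout.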

CCN(c1cc(-c2ccc(CN3CCOCC3)cc2)cc(C(=O)NCc2c(C)cc(C)[nH]c2=O)c1C)C1CCOCC1 + NC1CC1c1ccc(-c2cccc(O)c2)cc1
IC50 (second compound 0.1 µM): > 3000 nM | IC50 (second compound 0.316 µM): > 3000 nM | IC50 (second compound 1 µM): > 3000 nM | IC50 (second compound 3.16 µM): > 3000 nM | IC50 (second compound 10 µM): > 3000 nM | viability, T/C [1]: 92.9% | viability, T/C [2]: 104% | viability, T/C [3]: 97.8% | viability, T/C [4]: 87.4% | viability, T/C (second compound 0.1 µM, first compound 0.949 µM): 94.1% | viability, T/C (second compound 0.1 µM, first compound 3 µM): 69.5% | viability, T/C [5]: 102% | viability, T/C [6]: 107% | viability, T/C [7]: 97.8% | viability, T/C [8]: 80.1% | viability, T/C (second compound 0.316 µM, first compound 0.949 µM): 79.3% | viability, T/C (second compound 0.316 µM, first compound 3 µM): 69.7% | viability, T/C [9]: 96.1% | viability, T/C [10]: 97.5% | viability, T/C [11]: 89.4% | viability, T/C [12]: 95.4% | viability, T/C (second compound 1 µM, first compound 0.949 µM): 93.6% | viability, T/C (second compound 1 µM, first compound 3 µM): 71.8% | viability, T/C [13]: 108% | viability, T/C [14]: 108% | viability, T/C [15]: 109% | viability, T/C [16]: 93.8% | viability, T/C (second compound 3.16 µM, first compound 0.949 µM): 89.3% | viability, T/C (second compound 3.16 µM, first compound 3 µM): 76.2% | viability, T/C [17]: 101% | viability, T/C [18]: 113% | viability, T/C [19]: 97% | viability, T/C [20]: 93% | viability, T/C (second compound 10 µM, first compound 0.949 µM): 90.4% | viability, T/C (second compound 10 µM, first compound 3 µM): 86.7%

Cn1ncnc1C1c2n[nH]c(=O)c3cc(F)cc(c23)NC1c1ccc(F)cc1 (stereo not given) + NC1CC1c1ccc(-c2cccc(O)c2)cc1
IC50 (second compound 0.1 µM): > 100 nM | IC50 (second compound 0.316 µM): > 100 nM | IC50 (second compound 1 µM): > 100 nM | IC50 (second compound 3.16 µM): > 100 nM | IC50 (second compound 10 µM): > 100 nM | viability, T/C (second compound 0.1 µM, first compound 0.000316 µM): 90.3% | viability, T/C (second compound 0.1 µM, first compound 0.001 µM): 95.9% | viability, T/C (second compound 0.1 µM, first compound 0.00316 µM): 95% | viability, T/C (second compound 0.1 µM, first compound 0.01 µM): 90.7% | viability, T/C (second compound 0.1 µM, first compound 0.0316 µM): 84.6% | viability, T/C (second compound 0.1 µM, first compound 0.1 µM): 83.4% | viability, T/C (second compound 0.316 µM, first compound 0.000316 µM): 92.2% | viability, T/C (second compound 0.316 µM, first compound 0.001 µM): 96.2% | viability, T/C (second compound 0.316 µM, first compound 0.00316 µM): 101% | viability, T/C (second compound 0.316 µM, first compound 0.01 µM): 91.4% | viability, T/C (second compound 0.316 µM, first compound 0.0316 µM): 82.2% | viability, T/C (second compound 0.316 µM, first compound 0.1 µM): 80% | viability, T/C (second compound 1 µM, first compound 0.000316 µM): 90% | viability, T/C (second compound 1 µM, first compound 0.001 µM): 97.4% | viability, T/C (second compound 1 µM, first compound 0.00316 µM): 99.8% | viability, T/C (second compound 1 µM, first compound 0.01 µM): 90.6% | viability, T/C (second compound 1 µM, first compound 0.0316 µM): 75.9% | viability, T/C (second compound 1 µM, first compound 0.1 µM): 82.6% | viability, T/C (second compound 3.16 µM, first compound 0.000316 µM): 89.7% | viability, T/C (second compound 3.16 µM, first compound 0.001 µM): 94.4% | viability, T/C (second compound 3.16 µM, first compound 0.00316 µM): 90.3% | viability, T/C (second compound 3.16 µM, first compound 0.01 µM): 85.1% | viability, T/C (second compound 3.16 µM, first compound 0.0316 µM): 82.7% | viability, T/C (second compound 3.16 µM, first compound 0.1 µM): 80% | viability, T/C (second compound 10 µM, first compound 0.000316 µM): 85.5% | viability, T/C (second compound 10 µM, first compound 0.001 µM): 88.3% | viability, T/C (second compound 10 µM, first compound 0.00316 µM): 94.8% | viability, T/C (second compound 10 µM, first compound 0.01 µM): 86.3% | viability, T/C (second compound 10 µM, first compound 0.0316 µM): 82.5% | viability, T/C (second compound 10 µM, first compound 0.1 µM): 78.6%

Nc1ncn(C2CC(O)C(CO)S2)c(=O)n1 (stereo not given) + NC1CC1c1ccc(-c2cccc(O)c2)cc1
IC50 (second compound 0.1 µM): > 300 nM | IC50 (second compound 0.316 µM): > 300 nM | IC50 (second compound 1 µM): > 300 nM | IC50 (second compound 3.16 µM): > 300 nM | IC50 (second compound 10 µM): > 300 nM | viability, T/C (second compound 0.1 µM, first compound 0.000949 µM): 100% | viability, T/C (second compound 0.1 µM, first compound 0.003 µM): 90.5% | viability, T/C [1]: 104% | viability, T/C [2]: 91% | viability, T/C [3]: 78.1% | viability, T/C [4]: 64.8% | viability, T/C (second compound 0.316 µM, first compound 0.000949 µM): 94.9% | viability, T/C (second compound 0.316 µM, first compound 0.003 µM): 100% | viability, T/C [5]: 77.4% | viability, T/C [6]: 84.8% | viability, T/C [7]: 87% | viability, T/C [8]: 67.6% | viability, T/C (second compound 1 µM, first compound 0.000949 µM): 81.8% | viability, T/C (second compound 1 µM, first compound 0.003 µM): 101% | viability, T/C [9]: 102% | viability, T/C [10]: 88.8% | viability, T/C [11]: 80.4% | viability, T/C [12]: 67.5% | viability, T/C (second compound 3.16 µM, first compound 0.000949 µM): 102% | viability, T/C (second compound 3.16 µM, first compound 0.003 µM): 94.2% | viability, T/C [13]: 98.2% | viability, T/C [14]: 85.1% | viability, T/C [15]: 93.8% | viability, T/C [16]: 77% | viability, T/C (second compound 10 µM, first compound 0.000949 µM): 94.3% | viability, T/C (second compound 10 µM, first compound 0.003 µM): 92.9% | viability, T/C [17]: 102% | viability, T/C [18]: 79.6% | viability, T/C [19]: 90.3% | viability, T/C [20]: 74.8%
